According to ChEMBL document CHEMBL1157539, “Thousands of chemical starting points for antimalarial lead identification” (Nature, 2010):

The compounds below were run on Plasmodium falciparum (assay: GSK_TCMDC: Inhibition of Plasmodium falciparum 3D7 in whole erythrocytes, using parasite LDH activity as an index of growth.). Conditions: Plasmodium falciparum, 3D7.
Format: functional, organism-based

Which XC50 does the source give for COc1ccc2nc(C)cc(N/N=C/c3ccc([N+](=O)[O-])cc3)c2c1 here?
The XC50 was 0.695 µM.

Which XC50 does the source give for COc1cccc(Nc2nc(C)cc(NC3CCCC3)n2)c1 here?
The XC50 was 1.11 µM.

How did the XC50 turn out when CCOC(=O)c1ccc(NC(=O)N[C@@H](Cc2ccc(O)cc2)C(=O)NC2CCN(Cc3ccc4c(c3)OCO4)CC2)cc1 was run?
Its XC50 is 1.06 µM.

COc1cc(C(C)C)nc2ccc(NC(=O)c3ccc(C(=O)Nc4ccc5nc(C(C)C)cc(OC)c5c4)cc3)cc12 was tested. Which XC50 did it give?
The XC50 was 0.579 µM.

O=C(Nc1cccc(Cl)c1)OC1CCCN2CCCCC12 (centres undefined) was tested. Which XC50 did it give?
Its XC50 is 1.02 µM.

CN1CCN(c2ccc(-c3cccc(NC(=O)c4ccc5ccccc5c4)c3)nn2)CC1 was tested. Which XC50 did it give?
Its XC50 is 0.383 µM.

Which XC50 does the source give for Cc1cc(NCCC(=O)NCCOc2ccccc2)nc(NCCc2ccc(F)cc2)n1 here?
The XC50 was 0.94 µM.

Cc1cccc2nc(-c3cccc(-c4ccc(CNCc5cnn(-c6ccccc6)n5)cc4)c3)[nH]c12 was tested. Which XC50 did it give?
The XC50 was 0.921 µM.

With NC1CCN(Cc2cccc(-c3ccc(-c4nc5ccccc5[nH]4)s3)c2)C1 (centres undefined) as the compound, how does the XC50 read?
Its XC50 is 0.727 µM.

Which XC50 does the source give for CCn1c(Sc2ccc([N+](=O)[O-])c(C#N)c2)nnc1-c1ccc(Cl)cc1 here?
Its XC50 is 1 µM.

With Cc1cccc2c(C3CCN(CC4CCC(NC(=O)/C=C/c5ccc(Cl)c(Cl)c5)CC4)CC3)c[nH]c12 (centres undefined) as the compound, how does the XC50 read?
Its XC50 is 1.03 µM.

With Cc1cc(C(=O)NCc2ccc(-c3c(C)noc3C)cc2)n(-c2ccccc2)n1 as the compound, how does the XC50 read?
The XC50 was 0.825 µM.

Which XC50 does the source give for CC1CN(S(=O)(=O)c2ccc(NC(=O)c3cc(-c4ccccc4O)n[nH]3)cc2)CC(C)O1 (centres undefined) here?
Its XC50 is 0.832 µM.

CC1(C)NC(N)=NC(=N)N1OCCSCCON1C(=N)N=C(N)NC1(C)C was tested. Which XC50 did it give?
The XC50 was 0.0506 µM.

How did the XC50 turn out when Cc1cccc2nc(-c3ccc(-c4cccc(NC(=O)Nc5ccc(F)c(F)c5F)c4)cc3)[nH]c12 was run?
The XC50 was 0.338 µM.

How did the XC50 turn out when CC(C)c1cc(Oc2c(I)cc(CCCc3ncc[nH]3)cc2I)ccc1O was run?
Its XC50 is 1.12 µM.

CN(C)Cc1cccc(-c2ccc(NC(=O)c3ccc4c(=O)n(Cc5ccoc5)cnc4c3)cc2)c1 was tested. Which XC50 did it give?
Its XC50 is 0.77 µM.

Which XC50 does the source give for Cc1[nH]c2ccccc2c1CC1CCN(CC2CCN(C(=O)/C=C/c3ccc(Cl)c(Cl)c3)CC2)CC1 here?
Its XC50 is 0.95 µM.

CC(=O)C=C1CC(=O)N(C[C@@H](O)[C@H]2O[C@@H]3OC(C)(C)O[C@@H]3[C@H]2O)c2ccccc2N1 was tested. Which XC50 did it give?
The XC50 was 1.26 µM.

With O=C(Nc1cccc(CN2CCCN(Cc3ccc(O)cc3)CC2)c1)c1cc(F)cc(F)c1 as the compound, how does the XC50 read?
The XC50 was 0.658 µM.

With CC(C)C[C@H](NC(=O)c1cc2ccccc2s1)C(=O)N[C@H]1CCN(Cc2ccc(OCCN3CCNCC3)c3ccccc23)C1 as the compound, how does the XC50 read?
The XC50 was 1.42 µM.

CC1Cc2ccccc2N1CC(=O)Nc1cc(C(F)(F)F)ccc1-n1cncn1 (centres undefined) was tested. Which XC50 did it give?
Its XC50 is 0.321 µM.

For COc1ccc2ccc(F)c(CC(=O)N3CCOC(CNCc4cccc(-c5ccsc5)n4)C3)c2n1 (centres undefined), which XC50 is on record?
Its XC50 is 1.17 µM.

O=C(Nc1ccc(Cl)cc1)Nc1cccc(-c2ccc(-c3nc4ccccc4[nH]3)cc2)c1 was tested. Which XC50 did it give?
The XC50 was 0.928 µM.

For c1ccc(CN2CCC(NCc3ccccc3-c3ccc(CNC4CCCC4)cc3)CC2)cc1, which XC50 is on record?
Its XC50 is 0.912 µM.

For Cc1cc(CN2CC[C@H](NC(=O)c3ccc(Cl)c(Cl)c3)C2)ccc1OC1CCN(Cc2ccccc2)CC1, which XC50 is on record?
The XC50 was 0.906 µM.

COc1ccc(Nc2nccc(NCC(O)c3cccc(C(F)(F)F)c3)n2)cc1 (centres undefined) was tested. Which XC50 did it give?
Its XC50 is 0.886 µM.

For CC(=O)Nc1nc(N)c2c(ccc3c2ccn3CC(C)C)n1, which XC50 is on record?
The XC50 was 0.0696 µM.

How did the XC50 turn out when CCCNC(=O)C1Cc2c([nH]c3cc(Br)ccc23)C2(CCN(CCc3ccccc3)CC2)N1 (centres undefined) was run?
Its XC50 is 0.972 µM.

Which XC50 does the source give for CN(CCN)Cc1cccc(-c2cccc(-c3nc4cc(C(F)(F)F)ccc4[nH]3)c2)c1 here?
The XC50 was 0.509 µM.

With CN(C)CCC1CCN(CCS(=O)(=O)c2cccc(Nc3ncc(-c4cccc(F)c4)cn3)c2)CC1 as the compound, how does the XC50 read?
Its XC50 is 1.06 µM.

How did the XC50 turn out when COc1ccc(C2(CNCC(O)c3cccc([N+](=O)[O-])c3)CCCCC2)cc1OC (centres undefined) was run?
The XC50 was 0.957 µM.

Which XC50 does the source give for O=C(/C=C/c1ccc(C(F)(F)F)cc1)NCCCCCN1CCCN(C(=O)Nc2ccc(F)c(Cl)c2)CC1 here?
Its XC50 is 0.368 µM.

With Cc1ccccc1C1CCN(C2CCC(NC(=O)/C=C/c3ccccc3C(F)(F)F)CC2)CC1 (centres undefined) as the compound, how does the XC50 read?
The XC50 was 1.41 µM.

Which XC50 does the source give for Cc1ccccc1C1CCN(C2CCC(NC(=O)c3cncc(-c4ccccc4)c3)CC2)CC1 (centres undefined) here?
The XC50 was 0.93 µM.

How did the XC50 turn out when Cc1cccc2nc(-c3ccc(-c4ccc(NC(=O)NCc5cccc(F)c5)cc4)cc3)[nH]c12 was run?
Its XC50 is 1.3 µM.

For Cc1ccc(CC(C)NCC(O)c2cccc(Br)c2)cc1 (centres undefined), which XC50 is on record?
The XC50 was 0.802 µM.

How did the XC50 turn out when Cc1ccc(F)cc1S(=O)(=O)Nc1ccc(CCN2CCC(N3CCCCC3)CC2)cc1 was run?
Its XC50 is 0.719 µM.

For c1ccc(COc2ccccc2COc2ccccc2-c2ccc3cccnc3n2)cc1, which XC50 is on record?
The XC50 was 0.921 µM.

How did the XC50 turn out when CCCC/C=C(\Cl)c1ccc(O)c2c1C[C@H]1C[C@H]3[C@H](N(C)C)C(O)=C(C(N)=O)C(=O)[C@@]3(O)C(O)=C1C2=O was run?
Its XC50 is 1.09 µM.

With O=C(Nc1ccc(Cl)cc1)c1cccc(S(=O)(=O)NC2CCN(CC3CCCCC3)CC2)c1 as the compound, how does the XC50 read?
Its XC50 is 0.722 µM.

Which XC50 does the source give for Cc1ccc(C)c(CN2CCC(CNC(=O)c3cc4ccc5cccnc5c4[nH]3)CC2)c1 here?
Its XC50 is 0.993 µM.

Which XC50 does the source give for c1cc(CN2CCCCC2)cc(-c2csc(-c3nc4ccccc4[nH]3)c2)c1 here?
The XC50 was 0.848 µM.

CN1CCN(Cc2cc3cc(NC(=O)/C=C/c4cccc(Cl)c4)ccc3s2)CC1 was tested. Which XC50 did it give?
The XC50 was 0.273 µM.

With CC(=NNC(N)=O)C1=C(O)C(c2ccccc2)N(C2CCCCC2)C1=O (centres undefined) as the compound, how does the XC50 read?
Its XC50 is 0.033 µM.

How did the XC50 turn out when CN1CCN(c2cc3c(Nc4ccc5c(cnn5Cc5ccccc5)c4)ncnc3cn2)CC1 was run?
Its XC50 is 1.13 µM.

O=C(Nc1ccc(Br)cc1)N1CCC(n2c(-c3ccccc3)nc3cccnc32)CC1 was tested. Which XC50 did it give?
The XC50 was 0.763 µM.

With O=C(/C=C/c1ccc(Cl)c(Cl)c1)NCCCCCN1CCC(NC(=O)Nc2cccc(Cl)c2Cl)CC1 as the compound, how does the XC50 read?
The XC50 was 0.667 µM.

How did the XC50 turn out when c1cc(CN2CCc3ccccc3CC2)cc(-c2c[nH]c3nc(NC4CCCC4)ncc23)c1 was run?
Its XC50 is 0.8 µM.

How did the XC50 turn out when CC(C)CC(NC(=O)c1ccc(F)cc1)C(=O)N[C@H](/C=N/N1CCNC1=O)CC(C)C (some centres undefined) was run?
Its XC50 is 1.03 µM.

With c1ccc(CN2CCC(NCc3cccc(-c4cncc5ccccc45)c3)CC2)cc1 as the compound, how does the XC50 read?
The XC50 was 1.36 µM.

With CCSc1ccccc1CON1C(=N)N=C(N)NC1(C)C as the compound, how does the XC50 read?
Its XC50 is 0.0032 µM.

CC1(C)N=C(N)N=C(N)N1c1ccc(Oc2ccccc2)cc1 was tested. Which XC50 did it give?
Its XC50 is 0.341 µM.

How did the XC50 turn out when O=C(NC1CC1)c1ccc(Nc2nccc(-c3c(-c4cccc(NC(=O)c5c(F)cccc5F)c4)nn4ccccc34)n2)cc1 was run?
The XC50 was 0.411 µM.

For O=C(NC1CCCc2ccccc21)[C@@H]1CCCN1C(=O)c1ccc(O)c(-c2ccc(Cl)c(Cl)c2)c1 (some centres undefined), which XC50 is on record?
The XC50 was 0.209 µM.

How did the XC50 turn out when CN(C)Cc1ccc(CN2CCN(CCOc3ccc(-c4ccc(Cl)cc4)cc3)CC2)o1 was run?
The XC50 was 1.02 µM.

With CC(O)C(C)(CO)NCc1ccc2c3c(cccc13)-c1ccccc1-2 (centres undefined) as the compound, how does the XC50 read?
Its XC50 is 0.818 µM.

With O=C(/C=C/c1ccc(Cl)c(Cl)c1)NC1C2CCC1CC(CN1CCC(c3c[nH]c4ccccc34)CC1)C2 (centres undefined) as the compound, how does the XC50 read?
Its XC50 is 0.203 µM.

How did the XC50 turn out when CC(C)CCN1CCCN(Cc2ccc(C(=O)Nc3ccc(F)c(F)c3)cc2)CC1 was run?
Its XC50 is 0.944 µM.

How did the XC50 turn out when CCCN(CCC)C(=O)c1cc(C(=O)N[C@@H](Cc2ccccc2)[C@H](O)CNCc2cccc(OC)c2)cc(N2CCCCS2(=O)=O)c1 was run?
The XC50 was 0.549 µM.

How did the XC50 turn out when N#Cc1ccc(CN2CCC(Oc3ccc(NC(=O)c4cccs4)cc3)CC2)cc1 was run?
The XC50 was 1.03 µM.

How did the XC50 turn out when COc1ccccc1Cc1nc2ccccc2nc1SCC(=O)Nc1cccc(C(F)(F)F)c1 was run?
The XC50 was 0.499 µM.

Which XC50 does the source give for Cc1ccc2nc(N(CCCn3ccnc3)C(=O)C=Cc3cccs3)sc2c1 here?
Its XC50 is 1.39 µM.

CC(=O)N(C)c1cccc(CNc2cc(C)nc(Nc3ccc(C)cc3)n2)c1 was tested. Which XC50 did it give?
The XC50 was 0.996 µM.

Which XC50 does the source give for CC(=O)Nc1ccc2[nH]cc(C3CCN(CC4CCN(C(=O)/C=C/c5ccc(Cl)c(Cl)c5)CC4)CC3)c2n1 here?
Its XC50 is 0.161 µM.

CCCN1CCN(Cc2ccc(C(=O)Nc3ccc(Cl)cc3)cc2)CC1 was tested. Which XC50 did it give?
The XC50 was 0.0485 µM.

With O=C(c1ccccc1)C1CC1CN1CC=C(c2c[nH]c3ccccc23)CC1 (centres undefined) as the compound, how does the XC50 read?
The XC50 was 0.525 µM.

With CCC(=O)c1c(C)n(-c2ncnc3c2nc(C)n3-c2ccc(C)cc2C)c2ccccc12 as the compound, how does the XC50 read?
Its XC50 is 0.645 µM.

With Cc1ccccc1Nc1nc(NCc2ccccc2)nc2ccccc12 as the compound, how does the XC50 read?
The XC50 was 1.02 µM.
